Measured values: PubChem BioAssay (NCI)
Several values for one entry are separate records, joined by “and”; a condition that tells them apart may be missing. Equal values may be shown once.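 Five concentrations, 48 hours, 96-well plates. Here, GI50 denotes the concentration required for 50% inhibition of growth. TGI denotes the concentration required for complete inhibition of growth.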

Key:
Assay in all cases: NCI-60 cell line screen, 48 h
OVCAR-5 ovarian = system: OVCAR-5 ovarian
HOP-62 NSCLC = system: HOP-62 NSCLC
HCT-15 colon = system: HCT-15 colon
ACHN renal = system: ACHN renal
SK-MEL-28 melanoma = system: SK-MEL-28 melanoma
RPMI-8226 leukemia = system: RPMI-8226 leukemia
LOX IMVI melanoma = system: LOX IMVI melanoma
PC-3 prostate = system: PC-3 prostate
EKVX NSCLC = system: EKVX NSCLC
UACC-257 melanoma = system: UACC-257 melanoma
HS 578T breast = system: HS 578T breast
SF-539 CNS = system: SF-539 CNS
CCRF-CEM leukemia = system: CCRF-CEM leukemia
BT-549 breast = system: BT-549 breast
MDA-MB-435 = system: MDA-MB-435
KM12 colon = system: KM12 colon
SNB-19 CNS = system: SNB-19 CNS
NCI/ADR-RES ovarian = system: NCI/ADR-RES ovarian
OVCAR-8 ovarian = system: OVCAR-8 ovarian
SK-MEL-2 melanoma = system: SK-MEL-2 melanoma
MDA-MB-468 breast = system: MDA-MB-468 breast
SNB-75 CNS = system: SNB-75 CNS
OVCAR-4 ovarian = system: OVCAR-4 ovarian
HOP-92 NSCLC = system: HOP-92 NSCLC
CAKI-1 renal = system: CAKI-1 renal
SK-OV-3 ovarian = system: SK-OV-3 ovarian
MOLT-4 leukemia = system: MOLT-4 leukemia
UACC-62 melanoma = system: UACC-62 melanoma
M14 melanoma = system: M14 melanoma
786-0 renal = system: 786-0 renal
HCT-116 colon = system: HCT-116 colon
NCI-H522 lung = system: NCI-H522 lung
SF-268 CNS = system: SF-268 CNS
SK-MEL-5 melanoma = system: SK-MEL-5 melanoma
SW-620 colon = system: SW-620 colon
MCF7 breast = system: MCF7 breast
DU-145 prostate = system: DU-145 prostate
NCI-H23 lung = system: NCI-H23 lung
K-562 leukemia = system: K-562 leukemia
A498 renal = system: A498 renal
T-47D breast = system: T-47D breast
SF-295 CNS = system: SF-295 CNS
SN12C renal = system: SN12C renal
IGROV1 ovarian = system: IGROV1 ovarian
A549 NSCLC = system: A549 NSCLC
MDA-MB-231 breast = system: MDA-MB-231 breast
SR leukemia = system: SR leukemia
HCC-2998 colon = system: HCC-2998 colon
TK-10 renal = system: TK-10 renal
COLO 205 colon = system: COLO 205 colon
RXF 393 renal = system: RXF 393 renal
U251 CNS = system: U251 CNS
NCI-H226 lung = system: NCI-H226 lung
HT29 colon = system: HT29 colon
UO-31 renal = system: UO-31 renal
MALME-3M melanoma = system: MALME-3M melanoma
NCI-H460 lung = system: NCI-H460 lung
HL-60(TB) leukemia = system: HL-60(TB) leukemia
OVCAR-3 ovarian = system: OVCAR-3 ovarian

COc1cc2cc(C(=O)N3C[C@@H](CCl)c4c3cc(OC(=O)N(CCC(=O)N3CCN(C)CC3)[C@H]3CCSSC3)c3ccccc43)[nH]c2c(OC)c1OC
GI50 (OVCAR-5 ovarian): 560 nM
TGI (OVCAR-5 ovarian): 1750 nM
GI50 (HOP-62 NSCLC): 166 nM and 110 nM
TGI (HOP-62 NSCLC): 1280 nM and 780 nM
GI50 (HCT-15 colon): 271 nM and 260 nM
TGI (HCT-15 colon): 1110 nM and 1430 nM
GI50 (ACHN renal): 83.1 nM
TGI (ACHN renal): 571 nM
GI50 (SK-MEL-28 melanoma): 413 nM and 293 nM
TGI (SK-MEL-28 melanoma): 846 nM and 826 nM
GI50 (RPMI-8226 leukemia): 477 nM and 222 nM
TGI (RPMI-8226 leukemia): 1850 nM and 1360 nM
GI50 (LOX IMVI melanoma): 295 nM and 208 nM
TGI (LOX IMVI melanoma): 781 nM and 891 nM
GI50 (PC-3 prostate): 480 nM and 722 nM
TGI (PC-3 prostate): 6150 nM and 6130 nM
GI50 (EKVX NSCLC): 365 nM and 315 nM
TGI (EKVX NSCLC): 1040 nM and 1900 nM
GI50 (UACC-257 melanoma): 475 nM and 630 nM
TGI (UACC-257 melanoma): 1150 nM and 3710 nM
GI50 (HS 578T breast): 689 nM and 1410 nM
TGI (HS 578T breast): 3920 nM and 6080 nM
GI50 (SF-539 CNS): 284 nM and 167 nM
TGI (SF-539 CNS): 642 nM and 409 nM
GI50 (CCRF-CEM leukemia): 559 nM and 219 nM
GI50 (BT-549 breast): 361 nM and 228 nM
TGI (BT-549 breast): 799 nM and 989 nM
GI50 (MDA-MB-435): 404 nM and 213 nM
TGI (MDA-MB-435): 788 nM and 529 nM
GI50 (KM12 colon): 535 nM and 268 nM
TGI (KM12 colon): 1640 nM and 1050 nM
GI50 (SNB-19 CNS): 258 nM and 252 nM
GI50 (NCI/ADR-RES ovarian): 292 nM
TGI (NCI/ADR-RES ovarian): 940 nM
GI50 (OVCAR-8 ovarian): 275 nM and 186 nM
GI50 (SK-MEL-2 melanoma): 417 nM and 214 nM
TGI (SK-MEL-2 melanoma): 777 nM and 381 nM
GI50 (MDA-MB-468 breast): 167 nM
TGI (MDA-MB-468 breast): 389 nM
GI50 (SNB-75 CNS): 388 nM and 181 nM
TGI (SNB-75 CNS): 1080 nM and 905 nM
GI50 (OVCAR-4 ovarian): 513 nM and 464 nM
TGI (OVCAR-4 ovarian): 1270 nM and 4990 nM
GI50 (HOP-92 NSCLC): 657 nM and 346 nM
TGI (HOP-92 NSCLC): 2130 nM and 1830 nM
GI50 (CAKI-1 renal): 272 nM
TGI (CAKI-1 renal): 4490 nM
GI50 (SK-OV-3 ovarian): 313 nM and 262 nM
TGI (SK-OV-3 ovarian): 1310 nM and 714 nM
GI50 (MOLT-4 leukemia): 113 nM and 89.7 nM
GI50 (UACC-62 melanoma): 259 nM and 271 nM
TGI (UACC-62 melanoma): 587 nM and 1220 nM
GI50 (M14 melanoma): 317 nM and 192 nM
TGI (M14 melanoma): 824 nM and 545 nM
GI50 (786-0 renal): 368 nM
TGI (786-0 renal): 1340 nM
GI50 (HCT-116 colon): 389 nM and 158 nM
TGI (HCT-116 colon): 3620 nM and 558 nM
GI50 (NCI-H522 lung): 433 nM and 263 nM
TGI (NCI-H522 lung): 1110 nM and 979 nM
GI50 (SF-268 CNS): 403 nM and 187 nM
GI50 (SK-MEL-5 melanoma): 327 nM
TGI (SK-MEL-5 melanoma): 656 nM
GI50 (SW-620 colon): 399 nM and 221 nM
TGI (SW-620 colon): 1900 nM and 911 nM
GI50 (MCF7 breast): 55.7 nM and 35.3 nM
TGI (MCF7 breast): 652 nM and 1100 nM
GI50 (DU-145 prostate): 113 nM and 58.5 nM
TGI (DU-145 prostate): 3390 nM and 1490 nM
GI50 (NCI-H23 lung): 75.9 nM and 55.3 nM
TGI (NCI-H23 lung): 358 nM and 254 nM
GI50 (K-562 leukemia): 604 nM and 162 nM
TGI (K-562 leukemia): 25000 nM and > 100000 nM
GI50 (A498 renal): 251 nM
TGI (A498 renal): 541 nM
GI50 (T-47D breast): 631 nM and 696 nM
TGI (T-47D breast): 25000 nM and 7830 nM
GI50 (SF-295 CNS): 113 nM and 145 nM
TGI (SF-295 CNS): 1750 nM and 545 nM
GI50 (SN12C renal): 241 nM and 286 nM
GI50 (IGROV1 ovarian): 436 nM and 501 nM
GI50 (A549 NSCLC): 393 nM
TGI (A549 NSCLC): 1630 nM
GI50 (MDA-MB-231 breast): 516 nM and 579 nM
TGI (MDA-MB-231 breast): 1140 nM and 8190 nM
GI50 (SR leukemia): 56.7 nM and 34.2 nM
GI50 (HCC-2998 colon): 154 nM and 158 nM
TGI (HCC-2998 colon): 579 nM and 331 nM
GI50 (TK-10 renal): 3370 nM
TGI (TK-10 renal): 11000 nM
GI50 (COLO 205 colon): 354 nM and 342 nM
TGI (COLO 205 colon): 837 nM and 1510 nM
GI50 (RXF 393 renal): 322 nM and 149 nM
TGI (RXF 393 renal): 724 nM and 297 nM
GI50 (U251 CNS): 299 nM and 164 nM
TGI (U251 CNS): 2800 nM and 423 nM
GI50 (NCI-H226 lung): 1570 nM and 435 nM
TGI (NCI-H226 lung): 25000 nM and 4470 nM
GI50 (HT29 colon): 474 nM and 270 nM
TGI (HT29 colon): 1730 nM and 1050 nM
GI50 (UO-31 renal): 333 nM and 221 nM
TGI (UO-31 renal): 948 nM and 545 nM
GI50 (MALME-3M melanoma): 405 nM and 280 nM
TGI (MALME-3M melanoma): 796 nM and 744 nM
GI50 (NCI-H460 lung): 99.6 nM and 55.7 nM
TGI (NCI-H460 lung): 2580 nM and 341 nM
GI50 (HL-60(TB) leukemia): 325 nM and 119 nM
TGI (HL-60(TB) leukemia): 2790 nM and 952 nM
GI50 (OVCAR-3 ovarian): 236 nM
TGI (OVCAR-3 ovarian): 581 nM
